According to US20100075984A1, “DICARBONYLIC COMPOUNDS WITH ANTIBACTERIAL ACTIVITY” (LABORATORIOS SALVAT, S.A., priority 2006, published 2010):
Values after ≈ are worked out from the molar mass of the structure shown.

Key:
[1] = test system: Staphylococcus aureus (BCM-012); experiment: Antimicrobial activity, microdilution in microtiter plate (MIC); format: cell-based; settings: Staphylococcus aureus BCM-012 (SALVAT collection); two-fold serial dilutions, 96 well plates; incubation 24 h at 35° C.
Procedure: (§1) In order to assess the antimicrobial activity of the compounds of the present invention a method of microdilution in microtiter plate was used. The compounds were diluted in a nutritious medium and, subsequently, distributed by two-fold serial dilutions in 96 well plates. Then, plates were inoculated with a bacterial suspension. After incubation for 24 h at 35° C. the minimum inhibitory concentration (MIC) of the drug in μg/mL was determined as the lowest concentration of compound which inhibits the growth of the bacterium. Results included in table 7 illustrate the antimicrobial activity of some of the compounds of the present invention in comparison with thus obtained with two compounds (linezolid and eperezolid) of a known antimicrobial activity. The antimicrobial activity of the compound versus Streptococcus faecalis (BCM-010, strain designation as for SALVAT collection) and Staphylococcus aureus (BCM-012, strain designation as for SALVAT collection), respectively, is shown in the different columns.

[2] = test system: Streptococcus faecalis (BCM-010); experiment: as above; format: cell-based; settings: Streptococcus faecalis BCM-010 (SALVAT collection), two-fold serial dilutions, 96 well plates, incubation 24 h at 35° C.; for MIC: Enterococcus faecalis
Procedure: as §1

SMILES	MIC [1] [µg/mL]	MIC [2] [µg/mL]	BCM-012 MIC [1] [µg/mL]	BCM-010 MIC [2] [µg/mL]
CC(=O)NC[C@H]1CN(c2ccc(N3CCN(C(=O)CO)CC3)c(F)c2)C(=O)O1 [Eperezolid, eperezolid, reference compound]	2 (≈ 5.07 µM)	4 (≈ 10.1 µM)		
O=CNCC(=O)N1CCN(c2ccc(-c3cc(CNc4ccon4)on3)cc2F)CC1 [I_1]			1	2
O=C(NCC(=O)N1CCN(c2ccc(-c3cc(CNc4ccon4)on3)cc2F)CC1)c1cccc(O)c1 [I_15]			0.25 to 0.5	0.25 to 0.5
Nc1ccc(C(=O)NCC(=O)N2CCN(c3ccc(-c4cc(CNc5ccon5)on4)cc3F)CC2)c(O)c1 [I_32]			0.25 to 0.5	0.25 to 0.5
Cc1ncc(-c2cccc(C(=O)NCC(=O)N3CCN(c4ccc(-c5cc(CNc6ccon6)on5)cc4F)CC3)c2)s1 [I_51]			1	1
O=C(NCC(=O)N1CCN(c2ccc(-c3cc(CNc4ccon4)on3)cc2F)CC1)c1ccc([N+](=O)[O-])o1 [I_58]			0.25	0.5 to 1
Cc1nc2cc(C(=O)NCC(=O)N3CCN(c4ccc(-c5cc(CNc6ccon6)on5)cc4F)CC3)ccc2n1CC1CC1 [I_82]			2	2
C#CCn1c(C)nc2cc(C(=O)NCC(=O)N3CCN(c4ccc(-c5cc(CNc6ccon6)on5)cc4F)CC3)ccc21 [I_84]			1	2
CC(=O)Nc1ccc(C(=O)NCC(=O)N2CCN(c3ccc(-c4cc(CNc5ccon5)on4)cc3F)CC2)cn1 [I_117]			1	1
CNCC(=O)NCC(=O)N1CCN(c2ccc(-c3cc(CNc4ccon4)on3)cc2F)CC1 [I_152]			2	2
O=C(NC(C(=O)N1CCN(c2ccc(-c3cc(CNc4ccon4)on3)cc2F)CC1)c1ccccc1)c1ccc2[nH]cnc2c1 (centres unmarked) [I_153]			2	2
CN(CC(=O)N1CCN(c2ccc(-c3cc(CNc4ccon4)on3)cc2F)CC1)C(=O)c1ccc2[nH]cnc2c1 [I_155]			2	2
O=C(NCC(=O)N1CCN(c2c(F)cc(-c3cc(CNc4ccon4)on3)cc2F)CC1)c1ccc2cccc(O)c2n1 [I_160]			0.25	0.25
Cc1ccc(C(=O)N[C@H](C(=O)N2CCN(c3ccc(-c4cc(CNc5ccon5)on4)cc3F)CC2)C(C)C)cn1 [I_170]			4	4
C[C@@H](NC(=O)c1ncccc1N)C(=O)N1CCN(c2ccc(-c3cc(CNc4ccon4)on3)cc2F)CC1 [I_171]			2	1
O=C(NCC(=O)N1CCN(c2ccc(-c3cc(CO)on3)cc2F)CC1)c1ccc2cccc(O)c2n1 [I_192]			0.5	0.5
Cc1ccc(C(=O)N[C@@H](C)C(=O)N2CCN(c3ccc(-c4cc(CO)on4)cc3F)CC2)cn1 [I_213]			1	1
O=C(NCC(=O)N1CCN(c2ccc(-c3cc(CNc4ccon4)on3)cc2F)CC1)Nc1ccc([N+](=O)[O-])cc1 [Ia_1, 1-[2-(4-{2-Fluoro-4-[5-(isoxazol-3-ylaminomethyl)isoxazol-3-yl]phenyl}piperazin-1-yl)-2-oxoethyl]-3-(4-nitrophenyl)urea]	1 (≈ 1.77 µM)	2 (≈ 3.54 µM)		
CC(=O)NC[C@H]1CN(c2ccc(N3CCOCC3)c(F)c2)C(=O)O1 [Linezolid, linezolid, reference compound]	2 (≈ 5.93 µM)	4 (≈ 11.9 µM)		
